Test results published in patent publication US7786152B2, “Compound” (priority 2002, dated 2010).

Legend:
Human 11βHSD1 = biological target: T1, Human 11βHSD1 (Homo sapiens, UniProt P28845); assay: 11β HSD1 cortisol radioimmunoassay (RIA) with human hepatic microsomes; type: biochemical; conditions: RIA format; Lineweaver-Burke; Buffer 3, 10 μg/well microsomal protein, 30 min; read-out: apparent Km
T1 construct: the enzyme source, native hepatic enzyme compared to recombinant enzyme; tissue XenoTech H0610/Lot 0210078; host or cells: human hepatic microsomes
T1 sequence (P28845 whole entry): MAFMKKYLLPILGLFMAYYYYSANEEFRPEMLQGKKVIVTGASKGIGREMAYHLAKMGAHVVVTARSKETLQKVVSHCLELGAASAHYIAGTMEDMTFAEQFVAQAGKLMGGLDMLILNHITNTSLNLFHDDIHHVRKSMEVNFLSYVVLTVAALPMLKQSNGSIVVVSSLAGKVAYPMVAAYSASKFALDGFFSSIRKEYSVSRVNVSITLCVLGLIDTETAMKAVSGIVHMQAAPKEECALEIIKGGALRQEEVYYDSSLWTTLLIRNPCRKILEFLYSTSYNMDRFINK
Method: Biological Assay Development Using Human 11β-Hydroxysteroid Dehydrogenase Type 1. Standard Operating Procedure for the 11β-Hydroxysteroid Dehydrogenase Type 1 Cortisol Radioimmunoassay. 11β HSD1 Cortisol RIA
Enzyme assay buffer: 30 mM Tris-HCL, pH 7.2 containing 1 mM EDTA
Antibody binding buffer: 50 mM Tris-HCL, pH 8, containing 0.1 M NaCl and 0.1% gelatin
Dilute into assay buffer 1 in 25. Also dilute neat DMSO 1 in 25 into assay buffer for controls.
Dilute this 1 in 50 into assay buffer.
Prepare NADPH as a 1.8 mg/ml solution in assay buffer.
Mix these 3 solutions 1:1:1 to make a solution of sufficient volume for 25 μl additions to each sample. Add 0.5 μCi tritiated cortisone per 25 μl and mix the solution well.
Microsome preparation: Dilute stock 20 mg/ml solution 1 in 100 with assay buffer.
Dextran coated charcoal preparation: Make a 20 mg/ml solution in antibody binding buffer and chill on ice.
Enzyme assay: To a u-bottom polypropylene 96 well plate add:
25 μl compound dilution or diluted DMSO to controls, NSB's and blanks
10 μl 1 mM GA in DMSO (enzyme stop solution) to blanks
25 μl substrate mixture to all samples
50 μl diluted microsomes to all samples
Incubate plate for 30 min at 37° C. shaking
Add 10 μl enzyme stop solution to all wells except the blanks
Add 100 μl antibody solution to all wells except the NSB's, add antibody binding buffer to these wells
Incubate at 37° C. for 1 h
Chill plate on ice for 15 min
Add 50 μl/well charcoal solution and mix with an 8-channel pipette (4-5 aspirations)
Centrifuge at 4° C., 2000×g for 15 min
Transfer 100 μl supernatant into an Optiplate, also add 25 μl substrate mixture to 2 empty wells to indicate counting efficiency
Add 200 μl Microscint-40 to all wells and count on a Topcount
The 11β HSD1 enzyme assay was carried out following the standard operating procedure described above in u-bottom polypropylene 96 well plates or 1.5 ml Eppendorf tubes as indicated for each experiment. Subsequent to stopping the enzyme reaction, 100 μl antibody prepared in buffer 3 unless otherwise indicated was added to test samples and 100 μl buffer 3 was added to the NSB samples. The samples were incubated for 1 hour at 37° C. and the chilled on ice for 15 mins. Dextran coated charcoal (50 μl/sample) prepared to the indicated concentration in buffer 3 was added and the samples were mixed (vortex for tubes and aspiration 5 times with an 8-channel pipette for 96 well plates) and chilled for a further 10 min. The samples were centrifuged at 2000×g for 15 min at 4° C. to pellet the charcoal. Aliquots of the supernatant (100 μl) were transferred to an Optiplate and counted on the Topcount in 150-200 μl Microscint 40. In some experiments, aliquots of supernatant were transferred to scintillation vials and counted on the Tricarb LSC in 5 ml Ultima Gold scintillant.
Substrate saturation was examined. The enzyme assay was carried out exactly described in the methods section, in Buffer 3 with 10 μg/well microsomal protein and with [cold cortisone] as indicated. [3H]-cortisone was 0.5 μCi/sample throughout. The reaction was stopped after 30 min by the addition of 10 μl stop solution. The RIA was carried out exactly as indicated in the methods section.
It is reported that DMSO can both increase and reduce microsomal enzyme activity, depending on the concentration, presumably due to effects on the microsomal membranes.

[1] = biological target: T2, human hepatic microsomal 11β-HSD1 (Homo sapiens, UniProt P28845); assay: 11β HSD1 TLC format assay with human hepatic microsomes; type: biochemical; conditions: Lineweaver-Burke, 10 μg microsomal protein, 30 minutes at 37° C., read-out: apparent Km for cortisone
T2 construct: the enzyme source, native hepatic enzyme compared to recombinant enzyme; tissue XenoTech H0610/Lot 0210078; host or cells: human hepatic microsomes
T2 sequence (P28845 whole entry): as above
Method: 11β-HSD1 activity in rat and human hepatic microsomes was evaluated, to determine the minimum microsomal protein concentrations required for measurement of enzyme activity. […] The assay was performed in Buffer 2 and the cortisone concentration used was 2 μM containing 0.5 μCi [^3H]-cortisone per incubation. Microsomes were tested at concentrations ranging from 50 μg to 400 μg protein per incubation in a final incubation volume of 100 μl in glass tubes. Samples were incubated for 1 h in a shaking water bath at 37° C. and the assay was stopped by addition of 1 ml ethyl acetate. To correct for recovery, 50 μl [^14C]-cortisol was added to the samples followed by 200 μl 0.05% CaCl2. The samples were vortex mixed and centrifuged as described above. The upper organic phase was removed and dried down, and the residue dissolved in 100 μl methanol and 50 μl aliquots were spotted onto TLC plates, which were run as described above. Samples were counted on a TriCarb liquid scintillation counter using a dual label programme. Recovery efficiency was determined from the DPM obtained in 50 μl [^14C]-cortisol solution, which was counted with the samples.
Lower human microsome protein concentrations were evaluated; 3.7 μg to 100 μg per sample. The time course of activity was also determined, from 0 to 60 minutes at 37° C. The extraction conditions were as described above. […]

C[C@]12CCC(=O)C=C1CC[C@@H]1[C@@H]2C(=O)C[C@@]2(C)[C@H]1CC[C@]2(O)C(=O)CO [cortisone, reference compound]
Km (Human 11βHSD1): 0.7 µM | Km [1]: 0.66 µM
